Entries after “also recorded” stand apart in the source; their conditions may differ.
Tests used:
[1] = UVB permeation of foot-pad skin (sunscreen test); parameters: species or system mouse; conditions: topically applied; GSK205 5 mM
Description: The UV LED was powered with 20 mA of current, resulting in 500 μW of optical power in a circular focal spot 1.5 mm in diameter, with 70% of the total flux in a 0.5 mm beam radius. The UV optical power transmitted through the sample was detected by a Hamamatsu S127-66BR UV detector, and the output of the photodetector was measured using a Keithley 236 source measure unit. Next, the foot-pad epidermis of a mouse was measured for UV transmission by placing it on a quartz coverslip and exposure to the UV beam. The vehicle-control group was treated with the alcohol and glycerol solution only. Another control group consisted of a commercially-available SPF100 preparation sunscreen in form of a cream, which was applied similar to the vehicle-control. The data for the GSK205 and sunscreen was normalized to this control data.
To validate these finding, we tested UVB absorption in GSK205-treated paw-pad skin, and whether GSK205 thus functions as sunscreen.

[2] = system: mouse primary keratinocytes; test: Histamine receptor-mediated Ca++ transients in mouse primary keratinocytes (fura-2); type: cell-based
Description: Mouse primary keratinocytes were prepared as described in Moore et al. (Proc Natl Acad Sci USA, 2013, 110, E3225-3416). Cells were pre-treated, for 10 min with 10 μM GSK205. Then 100 μM of each, histamine, 2-Pyridylethylamine (selective activator for H1R), and 4-Methylhistamine (selective activator for H4R; both H1R and H4R known to be expressed in rodent and human keratinocytes), were applied, and fura-2 loaded keratinocytes were imaged ratiometrically, as described (Moore et al. Proc Natl Acad Sci USA, 2013, 110, E3225-3416; Li, et al. Environ Health Perspect, 2011, 119, 784-9316). Shown in blue (top curve) is the average signal of ≥75 cells. Note the robust signal for histamine, and in response to selective activator of H1R, less prominent for H4R, in keeping with previous findings on expression levels of these channels in keratinocytes.

TRPV4 = TRPV4 (Homo sapiens, UniProt Q9HBA0); test: UVB-evoked Ca++ transient in TRPV4-transfected HEK293T cells; type: cell-based; parameters: expressed in transfected cells; host or cells: HEK293T cells; conditions: pre-exposure to 20 μM GSK205
Source text: (B) Focusing properties of the ball lens. […] (E) TRPV3 activation experiment. […] (F) TRPV4 selective activator GSK101-related findings.
To assess whether TRPV4 is sufficient for the UVB-evoked Ca++ influx, we introduced high levels of TRPV4 into HEK293 epithelial cells. TRPV4 expression endowed these cells with the ability to generate robust Ca++ signaling in response to UVB (FIG. 2G). Moreover, if they were pre-exposed to GSK205, the response was blocked. Thus, heterologous TRPV4 expression is sufficient for UVB radiation to cause a cellular Ca++ transient.

TRPV4, sequence (Q9HBA0 whole entry, species assumed): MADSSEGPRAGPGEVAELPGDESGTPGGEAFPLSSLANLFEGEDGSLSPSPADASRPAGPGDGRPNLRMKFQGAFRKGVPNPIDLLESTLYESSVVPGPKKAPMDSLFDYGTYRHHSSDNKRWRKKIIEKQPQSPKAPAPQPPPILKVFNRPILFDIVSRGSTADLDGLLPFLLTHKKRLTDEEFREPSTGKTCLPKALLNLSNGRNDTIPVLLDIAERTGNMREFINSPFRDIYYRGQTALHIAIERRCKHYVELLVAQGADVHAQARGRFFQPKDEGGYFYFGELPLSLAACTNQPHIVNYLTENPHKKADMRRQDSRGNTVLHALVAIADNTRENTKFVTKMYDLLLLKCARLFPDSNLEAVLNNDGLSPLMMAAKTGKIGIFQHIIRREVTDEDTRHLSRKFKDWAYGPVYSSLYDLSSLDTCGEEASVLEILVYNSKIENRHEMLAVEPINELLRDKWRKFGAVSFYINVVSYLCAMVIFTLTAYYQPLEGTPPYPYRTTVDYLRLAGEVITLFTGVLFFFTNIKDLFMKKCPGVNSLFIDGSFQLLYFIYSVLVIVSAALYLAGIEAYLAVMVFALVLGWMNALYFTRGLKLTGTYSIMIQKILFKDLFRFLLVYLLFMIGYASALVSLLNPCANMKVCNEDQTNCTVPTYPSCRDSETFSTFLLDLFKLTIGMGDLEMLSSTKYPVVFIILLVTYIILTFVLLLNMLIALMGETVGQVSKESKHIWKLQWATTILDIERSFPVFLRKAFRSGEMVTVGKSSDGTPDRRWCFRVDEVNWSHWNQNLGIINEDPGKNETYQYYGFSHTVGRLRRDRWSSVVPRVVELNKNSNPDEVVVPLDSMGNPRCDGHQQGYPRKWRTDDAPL

histamine-Ca++ response ([2]; 10 μM GSK205 10 min pre-treatment, 100 μM histamine): eliminated completely | Ca++ response to activation of H1R ([2]; 10 μM GSK205, 100 μM 2-Pyridylethylamine): eliminated completely | Ca++ response to H4R ([2]; 10 μM GSK205, 100 μM 4-Methylhistamine): significantly attenuated
SMILES: CN(CCc1ccc(Nc2nc(-c3cccnc3)cs2)cc1)Cc1ccccc1 [GSK205]
UVB permeation of paw-pad skin [1]: equal UVB permeation; also recorded: absence of a change in UVB permeation | UVB-evoked Ca++ signal in TRPV4-transfected HEK293T cells (TRPV4): blocked; also recorded: virtually eliminates

From patent publication US11229628B2, “TRPA1 and TRPV4 inhibitors and methods of using the same for organ-specific inflammation and itch” (Duke University, priority 2015, dated 2022)
